Laboratory results: ChEMBL document CHEMBL4359918, “Discovery of tissue selective liver X receptor agonists for the treatment of atherosclerosis without causing hepatic lipogenesis” (Eur J Med Chem, 2019)
Active and inactive are the calls of the source. The rule behind the calls is not given here.

Assays:
[1] = Selectivity index, ratio of compound effect for agonist activity at human LXRalpha to compound effect for agonist activity at […]
[2] = molecular target: T1, Oxysterols receptor LXR-beta (Rattus norvegicus) (UniProt Q62755); assay: Agonist activity at rat LXRbeta transfected in HEK293T cells at 10 uM incubated for 20 hrs by luciferase reporter gene assay relative to control; type: cell-based
T1 sequence (whole entry): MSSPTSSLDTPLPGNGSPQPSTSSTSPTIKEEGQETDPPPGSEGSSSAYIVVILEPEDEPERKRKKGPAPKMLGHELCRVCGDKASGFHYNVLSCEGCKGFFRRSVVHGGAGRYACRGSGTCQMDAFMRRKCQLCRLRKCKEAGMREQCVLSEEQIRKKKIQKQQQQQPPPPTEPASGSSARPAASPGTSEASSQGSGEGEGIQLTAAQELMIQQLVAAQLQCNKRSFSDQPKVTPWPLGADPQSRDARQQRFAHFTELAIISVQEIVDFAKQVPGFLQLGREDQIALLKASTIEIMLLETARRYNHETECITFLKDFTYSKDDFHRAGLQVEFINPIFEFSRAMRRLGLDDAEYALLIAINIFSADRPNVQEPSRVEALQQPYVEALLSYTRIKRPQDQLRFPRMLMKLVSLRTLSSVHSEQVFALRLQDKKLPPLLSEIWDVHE

[3] = system: HEK-293T; assay: Cytotoxicity against HEK293T cells assessed as reduction in cell viability at […] incubated for 24 hrs by MTT assay; type: cell-based; details: human
[4] = molecular target: T2, LXRalpha (Oxysterols receptor LXR-alpha) (Homo sapiens, UniProt Q13133); assay: Agonist activity at human LXRalpha transfected in HEK293T cells at 10 uM incubated for 20 hrs by luciferase reporter gene assay relative to control; type: cell-based; details: HEK293T cells transfected with human LXRalpha, read-out: FC
T2 sequence (Q13133 whole entry): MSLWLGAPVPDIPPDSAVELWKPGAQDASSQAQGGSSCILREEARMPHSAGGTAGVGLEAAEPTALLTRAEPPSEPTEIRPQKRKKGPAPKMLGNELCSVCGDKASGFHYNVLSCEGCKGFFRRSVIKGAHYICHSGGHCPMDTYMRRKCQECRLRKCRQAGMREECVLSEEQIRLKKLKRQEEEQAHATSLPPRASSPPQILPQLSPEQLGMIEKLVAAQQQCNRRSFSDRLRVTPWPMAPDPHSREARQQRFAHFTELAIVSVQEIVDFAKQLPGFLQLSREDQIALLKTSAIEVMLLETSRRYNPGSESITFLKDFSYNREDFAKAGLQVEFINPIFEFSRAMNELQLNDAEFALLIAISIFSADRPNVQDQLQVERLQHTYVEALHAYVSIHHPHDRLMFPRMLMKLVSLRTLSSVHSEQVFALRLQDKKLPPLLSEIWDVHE

[5] = system: HepG2; assay: Lipid lowering activity in human HepG2 cells assessed as decrease in OA-induced TG accumulation at 10 uM incubated for 24 hrs; type: functional, cell-based
[6] = Agonist activity at LXR in mouse RAW264.7 cells assessed as increase in sREBP-1c mRNA expression at 10 uM incubated for 48 hrs by qPCR analysis; type: cell-based; details: raw264.7, 48 h
[7] = Agonist activity at LXR in mouse 3T3L1 preadipocytes assessed as increase in sREBP-1c mRNA expression at 10 uM by qPCR analysis; type: cell-based
[8] = molecular target: Liver X receptor (Homo sapiens) (UniProt Q13133+P55055); assay: Agonist activity at LXR in human HepG2 cells assessed as increase in ABCA1 mRNA expression at 10 uM incubated for 24 hrs by qPCR analysis; type: cell-based
[9] = Agonist activity at LXR in C57BL/6 mouse PBMC assessed as increase in sREBP-1c mRNA expression at 10 uM incubated for 48 hrs by qPCR analysis
[10] = species on record: Mus musculus; assay: Agonist activity at LXR in C57BL/6 mouse PBMC assessed as increase in ABCA1 mRNA expression at 10 uM incubated for 48 hrs by qPCR analysis
[11] = Agonist activity at LXR in mouse 3T3L1 preadipocytes assessed as increase in ABCA1 mRNA expression at 10 uM by qPCR analysis; type: cell-based
[12] = system: HepG2; assay: Effect on TG accumulation in human HepG2 cells at 10 uM incubated for 24 hrs; type: ADME, cell-based; details: hepg2, 24 h
[13] = system: Mus musculus; assay: Increase in hepatic triglyceride level in high fat diet-induced C57BL/6 mouse model of hypercholesterolemia at 20 mg/kg, po administered for 12 weeks; type: ADME, organism-based; details: in vivo, 2016 h
[14] = system: Mus musculus; assay: Induction of hepatic steatosis in C57BL/6 mouse assessed as accumulation of hepatic triglyceride level at 50 mg/kg/day, ig administered for 7 days; type: organism-based; details: in vivo, po, 168 h
[15] = system: Mus musculus; assay: Induction of hepatic steatosis in C57BL/6 mouse assessed as accumulation of serum triglyceride level at 50 mg/kg/day, ig administered for 7 days; type: organism-based; details: in vivo, po, 168 h
[16] = Toxicity in high fat diet-induced C57BL/6 mouse model of hypercholesterolemia assessed as reduction in liver weight at 20 mg/kg, po administered for 12 weeks by H and E staining-based assay; type: organism-based; details: in vivo, 2016 h

Liver X receptor (Homo sapiens), sequence (P55055 whole entry, looked up, one chain of several): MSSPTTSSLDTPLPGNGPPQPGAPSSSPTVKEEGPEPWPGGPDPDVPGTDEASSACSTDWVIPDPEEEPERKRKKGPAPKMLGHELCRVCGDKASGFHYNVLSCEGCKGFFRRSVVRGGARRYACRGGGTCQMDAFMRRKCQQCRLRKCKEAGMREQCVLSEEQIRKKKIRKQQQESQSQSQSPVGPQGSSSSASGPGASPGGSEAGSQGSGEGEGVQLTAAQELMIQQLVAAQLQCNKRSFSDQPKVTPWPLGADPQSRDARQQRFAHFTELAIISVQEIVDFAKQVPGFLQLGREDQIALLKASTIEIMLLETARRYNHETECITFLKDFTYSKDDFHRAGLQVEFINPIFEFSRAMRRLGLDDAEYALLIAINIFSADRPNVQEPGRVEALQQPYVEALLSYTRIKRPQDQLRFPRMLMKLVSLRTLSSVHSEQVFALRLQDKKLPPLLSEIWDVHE

| fold change (FC) [2] | fold induction at 20 h, 10 µM [4] | Activity [6] | Activity [7] | Activity [8] | Activity [9] | Activity [10] | Activity [11] | SMILES | Ratio [1] | Activity [3] | Activity [5] | Activity [12] | Activity [13] | Activity [14] | Activity [15] | Activity [16] |
| --- | --- | --- | --- | --- | --- | --- | --- | --- | --- | --- | --- | --- | --- | --- | --- | --- |
| 3 | 2.63 | – | – | – | – | – | – | CC(=O)O[C@H]1CC[C@@]2(C)C(=CC[C@H]3[C@@H]4CC[C@H]([C@H](C)CCC(=O)C(C)C)[C@@]4(C)CC[C@@H]32)C1 | 1.14 | Non-Toxic | – | – | – | – | – | – |
| 2.42 | 2.19 | Not Active | Active | Active | Not Active | Active | Active | O=C(O)Cc1cccc(OCCCN(Cc2cccc(C(F)(F)F)c2Cl)CC(c2ccccc2)c2ccccc2)c1 | 1.11 | – | inactive | Toxic | – | – | – | – |
| – | – | – | – | – | – | – | – | O=S(=O)(c1ccccc1)N(CC(F)(F)F)c1ccc(C(O)(C(F)(F)F)C(F)(F)F)cc1 [T091317] | – | – | – | – | Toxic | Toxic | Toxic | Toxic |
